According to PubChem BioAssay (NCI):
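Following 48 hours of exposure in 96-well plates, responses at five concentrations were used to interpolate endpoints linearly. At the TGI there is no net growth.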

Key:
Test in all cases: inhibition of tumour cell growth, NCI panel, 48 h
[1] = tested on: OVCAR-5 ovarian
[2] = tested on: SNB-78 CNS
[3] = tested on: COLO 205 colon
[4] = tested on: SF-539 CNS
[5] = tested on: NCI-H226 lung
[6] = tested on: TK-10 renal
[7] = tested on: SK-MEL-28 melanoma
[8] = tested on: RPMI-8226 leukemia
[9] = tested on: HCC-2998 colon
[10] = tested on: 786-0 renal
[11] = tested on: UACC-62 melanoma
[12] = tested on: SK-MEL-2 melanoma
[13] = tested on: SK-OV-3 ovarian
[14] = tested on: SW-620 colon
[15] = tested on: MOLT-4 leukemia
[16] = tested on: M19-MEL melanoma
[17] = tested on: UO-31 renal
[18] = tested on: MALME-3M melanoma
[19] = tested on: HOP-92 NSCLC
[20] = tested on: SF-268 CNS
[21] = tested on: OVCAR-8 ovarian
[22] = tested on: HCT-15 colon
[23] = tested on: SF-295 CNS
[24] = tested on: ACHN renal
[25] = tested on: A549 NSCLC
[26] = tested on: HCT-116 colon
[27] = tested on: SK-MEL-5 melanoma
[28] = tested on: SNB-75 CNS
[29] = tested on: KM12 colon
[30] = tested on: EKVX NSCLC
[31] = tested on: DMS 114 small cell lung
[32] = tested on: NCI-H23 lung
[33] = tested on: LXFL 529 NSCLC
[34] = tested on: UACC-257 melanoma
[35] = tested on: K-562 leukemia
[36] = tested on: SN12C renal
[37] = tested on: U251 CNS
[38] = tested on: KM20L2 colon
[39] = tested on: IGROV1 ovarian
[40] = tested on: RXF 393 renal
[41] = tested on: OVCAR-3 ovarian
[42] = tested on: SNB-19 CNS
[43] = tested on: SR leukemia
[44] = tested on: HT29 colon
[45] = tested on: HOP-62 NSCLC
[46] = tested on: DLD-1 colon
[47] = tested on: OVCAR-4 ovarian
[48] = tested on: A498 renal
[49] = tested on: LOX IMVI melanoma
[50] = tested on: NCI-H460 lung
[51] = tested on: CCRF-CEM leukemia
[52] = tested on: DMS 273 small cell lung
[53] = tested on: HL-60(TB) leukemia
[54] = tested on: M14 melanoma
[55] = tested on: CAKI-1 renal
[56] = tested on: NCI-H522 lung

Measured: TGI

Cn1c(=O)c2nc3c4ccccc4c(=O)n(C)c3nc2n(C)c1=O
not listed: [45] | [46] | [47] | [48] | [49] | [50] | [51] | [52] | [53] | [54] | [55] | [56]
> 100 µM: all other assays above

CC(C)C1CNC2N1C(=O)C2(C)OCc1ccccc1 (stereo not drawn)
not listed: [1] | [2] | [13] | [19] | [29] | [55] | [56]
> 100 µM: all other assays above

ClCCC[Si]12OCCN(CCO1)CCO2
not listed: [22] | [38] | [45] | [47] | [49] | [54]
> 100 µM: all other assays above
